Patent US9345667B2, “Particles having hydrophobic material therein” (Australian Nuclear Science and Technology Organisation, priority 2005, dated 2016)
In brackets after ≈: the same amount, converted by molar mass. Blank lines part the entries; values can stand above or below the compound they belong to.

Columns and labels:
[1] = cited from earlier work
[2] = Release of SB-35 dye from silica microparticles (UV/Vis); assay type: physicochemical; conditions: in cyclohexane, compared with dodecane
Procedure: 1. The encapsulation efficiency and release rate of the hydrophobic dye were determined by UV/Vis spectroscopy (Cary 50). The encapsulation efficiency was estimated by two methods. The first one was an indirect measurement, which consisted of measuring the U/Vis absorbance of the cyclohexane/Span 80 solutions after the silica particles had been filtered out. The encapsulation efficiency of the dye was calculated by subtracting the dye measured in the outer oil phase from the original dye concentration introduced into the system. A standard calibration curve was generated by adding accurate amounts of dye into the outer oil phase, with identical composition and concentration as the one used for the preparation of the corresponding samples. The second “direct” method consisted of measuring the release of SB-35 from the silica particles in a solvent such as ethanol, cyclohexane or dodecane, until the absorbance was stable. A standard calibration curve was produced by using the identical composition and concentration as the sample release media. (The surfactant content was estimated by the TGA/DTA result). The absorbance was measured at different intervals of time while stirring the product to produce the dye release curve.
The faster release rate observed in the case of the cyclohexane may be explained by the higher lipophilicity of the cyclohexane. […]

[3] = UV/Vis of retinol during release from retinol-doped silica particles; assay type: physicochemical; conditions: release in anhydrous ethanol

Structure (SMILES): CN(C)C(=O)Nc1ccc(Cl)c(Cl)c1 [diuron, 3-(3,4-Dichlorophenyl)-1,1-dimethylurea]
solubility in methanol [1]: 43 mg/mL (≈ 184 mM)

Structure (SMILES): CCCCNc1ccc(NCCCC)c2c1C(=O)c1ccccc1C2=O [SB-35, Solvent Blue 35]
release rate of SB-35 from silica microparticles [2]: faster than in dodecane

retinol UV/Vis band during release [3]: disappeared
Structure (SMILES): CC1=C(/C=C/C(C)=C/C=C/C(C)=C/CO)C(C)(C)CCC1 [retinol]
